Experiments:
[1] = system: 2.5% DSS-induced inflammatory bowel disease animal model; experiment: Spleen weight and length (spleen ratio) in DSS-induced inflammatory bowel disease mice; assay type: in vivo, C57BL/6N male mice; settings: 5-ASA 100 mg/kg oral, last day of administration
Procedure: (§1) 6-week-old C57BL/6N male mice were purchased and pre-bred for one week, and then they were randomly divided into a total of 4 groups of 8 mice per group, and experiments were conducted as shown in Table 1 below.
A representative symptom that can occur in relation to inflammatory bowel disease includes splenitis. As such, when the spleen becomes inflamed, the size of the spleen is increased by its nature (Nutrients 2019, 11(11), 2776), and in fact, it is known that the spleen becomes enlarged in the model of IBD induced after DSS treatment (Biol. Pharm. Bull. 43, 450-457 (2020)). Therefore, in order to evaluate the level of inflammation in the spleen of mice according to the administration of the Isatidis folium extract of the present invention, the mouse of Example 1 was sacrificed on the last day of each administration, and then the weight and length of the spleen of each group compared to those of the negative control group were measured, and the spleen ratio is shown.

[2] = system: 2.5% DSS-induced inflammatory bowel disease animal model; experiment: Body weight change in DSS-induced inflammatory bowel disease mice; assay type: in vivo, C57BL/6N male mice; settings: 5-ASA 100 mg/kg oral for 10 days; 2.5% DSS in drinking water 8 days; body weight before DSS = 100%; negative control 84.50±2.78%, normal 104.89±1.09%
Procedure: as §1
Body weight loss is a representative symptom of inflammatory bowel disease (Scientific Reports volume 10, Article number: 3829 (2020)). The body weight of the mouse was measured once a day at the same time (10 am) using an electronic scale. The rate of change in body weight of each group was obtained by summing the body weight of 8 mice per group and then dividing by 8. The average body weight immediately before the start of administration of 2.5% DSS in drinking water was set as 100%, and the average body weight of each group was calculated every day to measure the rate of change in body weight. Significance was verified by performing a Mann-Whitney test for each group between the negative control group to which 2.5% DSS was administered in drinking water and the experimental group.

In the case of `Nc1ccc(O)c(C(=O)O)c1` [5-ASA, 5-aminosalicylic acid], the “decrease of weight and length of the spleen compared to negative control group” value [1] is reported as 60.6% and the “rate of change in body weight” value [2] is reported as 88.62±1.52%.

Source: patent US20230414689A1, “COMPOSITION FOR PREVENTING, IMPROVING OR TREATING INFLAMMATORY BOWEL DISEASE, COMPRISING ISATIDIS FOLIUM EXTRACT” (MTHERA PHARMA CO., LTD, priority 2021, published 2023)
